Measured values published in patent US5817670A, “Naphthyridine derivatives and pharmaceutical compositions thereof” (Yamanouchi Pharmaceutical Co., Ltd., priority 1994, dated 1998).
pIC50: −log10 of the molar value. Where a name gives a salt, the structure may show the parent alone.

Assays:
[1] = molecular target: type III phosphodiesterase; experiment: Phosphodiesterase inhibition activity (in vitro), Type III; assay type: biochemical, rat
Description: (§1) (A) In order to evaluate selectivity of the compounds of the present invention for type IV phosphodiesterase, types I, II, III and V phosphodiesterase isozymes were purified in the following manner.
(§2) 1) Solutions containing various phosphodiesterase (types I, II and III) isozymes were purified from rat heart muscle cells in the following manner. Under ether anesthesia, Wistar rat was subjected to thoracotomy to excise the heart. After removing blood by perfusion with physiological saline supplemented with heparin (1 unit/ml), the heart was finely chopped with scissors. This was suspended in buffer A (20 mM Bis-Tris, 5 mM dithioerythritol, 2 mM EGTA and 50 mM sodium acetate, pH 6.5) containing a protease inhibitor (50 μM phenyl-methyl-sulfonyl-fluoride, 5 μM pepstatin A, 40 μM leupeptin, 20 μM aprotinin or 2 mM benzamidine) and then the cells were disrupted using polytron and sonicator and subjected to ultracentrifugation (4° C., 100,000×g, 60 minutes) to give a soluble fraction.
(§3) 2) Solutions containing various phosphodiesterase isozymes were obtained from the thus obtained soluble fraction in the following manner. The thus, obtained soluble fraction was applied to a column of 1.6×10.0 cm packed with Q Sepharose which had been equilibrated with buffer A. Next, said column was washed with 300 ml of buffer A to remove non-absorbed protein. Phosphodiesterase was eluted with 200 ml of buffer A having 0.05 to 1.25M linear gradient of sodium acetate to collect about 40 fractions each containing 5.0 ml eluate. Each fraction was checked for cAMP- and cGMP-metabolizing phosphodiesterase activities. Of these fractions, a fraction having only cAMP-metabolizing activity and showing disappearance of the metabolizing activity by 0.1 μM cilostamide (a type III phosphodiesterase selective inhibitor) was used as the type III phosphodiesterase. […] These fractions were separately collected to be used as phosphodiesterase (types I, II and III) stock solutions for the examination of selectivity. p1 3) A solution containing type V phosphodiesterase was prepared from peripheral blood of a healthy person in the following manner. A 200 ml portion of physiological saline supplemented with dextran (3%) was added to 500 ml of heparinized peripheral blood and incubated at 37° C. for 40 minutes to effect precipitation of erythrocytes. The supernatant fluid after precipitation of erythrocytes was recovered and centrifuged once, and the resulting precipitate was suspended in buffer B (140 mM NaCl, 5 mM KCl, 5 mm glucose and 10 mM HEPES, pH 7.4), overlaid on a solution for density gradient centrifugation use (Ficoll solution) and then centrifuged at room temperature for 40 minutes at 450×g, thereby separating monocyte fraction and granulocyte fraction. The granulocyte fraction was washed once with buffer C (140 mM NaCl, 5 mM KCl, 1 mM CaCl2, 1 mM MgCl2, 5 mM glucose and 10 mM HEPES, pH 7.4) and suspended in buffer D (20 mM Bis-Tris, 5 mM dithioerythritol, 2 mM EGTA and 50 mM sodium acetate, pH 6.5) containing a protease inhibitor (40 μM leupeptin, 5 μM pepstatin A, 20 μM aprotinin, 50 μM phenyl-methyl-sulfonyl-fluoride or 2 mM benzamidine) and then the cells were disrupted using polytron and sonicator and subjected to ultracentrifugation (4° C., 100,000×g, 60 minutes) to give a soluble fraction.
(§4) (B) Inhibitory activities were measured using the thus obtained stock solutions of various phosphodiesterase isozymes.
(§5) 1) A predetermined amount of each compound to be tested was subjected to 10 minutes of reaction at 30° C. in a reaction mixture containing 40 mM Tris-HCl (pH 8.0), 5 mM MgCl2, 4 mM 2-mercaptoethanol, 10 μM rolipram (a type IV phosphodiesterase selective inhibitor), 1 μM cAMP, 10 nM ^3 H-cAMP (in the case of type V phosphodiesterase, 1 μM cAMP and 10 nM ^3 H-cAMP are replaced by 1 μM cGMP and 100 nM ^3 H-cGMP) and each of the isozyme stock solutions. […]

[2] = molecular target: type IV phosphodiesterase; experiment: Phosphodiesterase inhibition activity (in vitro), Type IV; assay type: biochemical, human (peripheral blood of a healthy person)
Experimental: (1) Method for measuring type IV phosphodiesterase inhibition activity
The following assay was used for the evaluation of the capability of the compounds of the present invention to inhibit type IV phosphodiesterase.
1) Physiological saline (200 ml) supplemented with dextran (3%) was added to 500 ml of heparinized peripheral blood of a healthy person and incubated at 37° C. for 40 minutes to effect precipitation of erythrocytes. The supernatant after precipitation of erythrocytes was recovered and centrifuged once, and the resulting precipitate was suspended in buffer A (140 mM NaCl, 5 mM KCl, 5 mM glucose and 10 mM HEPES, pH 7.4), overlaid on a solution for density gradient centrifugation use (Ficoll solution) and then centrifuged at room temperature for 40 minutes at 450×g, thereby separating monocyte fraction and granulocyte fraction. The granulocyte fraction was washed once with buffer B (140 mM NaCl, 5 mM KCl, 1 mM CaCl2, 1 mM MgCl2, 5 mM glucose and 10 mM HEPES, pH 7.4) and suspended in buffer C (20 mM Bis-Tris, 5 mM dithioerythritol, 2 mM EGTA and 50 mM sodium acetate, pH 6.5) containing a protease inhibitor (50 μM phenyl-methyl-sulfonyl-fluoride, 5 μM pepstatin A, 40 μM leupeptin, 20 μM aprotinin or 2 mM benzamidine) and then the cells were disrupted using polytron and sonicator and subjected to ultracentrifugation (4° C., 100,000×g, 60 minutes) to give a soluble fraction.
2) The thus obtained soluble fraction was applied to a column of 1.6×10 cm packed with Q Sepharose which had been equilibrated with buffer C. Next, the column was washed with 300 ml of buffer C to remove non-absorbed protein. Phosphodiesterase was eluted with 200 ml of buffer C having 0.05 to 1.25M linear gradient of sodium acetate to collect 40 fractions each containing 5.0 ml eluate. Each fraction was checked for cAMP- and cGMP-metabolizing phosphodiesterase activities. Fractions having no cGMP- but cAMP-metabolizing activity and showing disappearance of the metabolizing activity by 10 μM rolipram (a type IV phosphodiesterase selective inhibitor) were collected to be used as a stock solution for the examination of type IV phosphodiesterase inhibition activity.
3) A predetermined amount of each compound to be tested was subjected to 10 minutes of reaction at 30° C. in a reaction mixture containing 40 mM Tris-HCl (pH 8.0), 5 mM MgCl2, 4 mM 2-mercaptoethanol, 0.3 μM cilostamide (a type III phosphodiesterase selective inhibitor), 1 μM cAMP, 10 nM ^3 H-cAMP and the type IV phosphodiesterase stock solution. The reaction solution was boiled at 90° C. for 1 minute, ice-cooled, mixed with 1 unit of 5'-nucleotidase and then subjected to 10 minutes of reaction at 30° C., and the reaction was stopped by the addition of 1 ml of methanol. The reaction solution was passed through a Dowex 1×8 column to adsorb un-hydrolyzed material and then the radioactivity was measured.
4) Concentration of each compound to be tested which inhibits 50% of the metabolic activity of type IV phosphodiesterase was calculated and expressed as IC50. (2) Method for measuring the activity to inhibit various phosphodiesterase isozymes
Results: The inhibition activity (IC50) value for h type of phosphodiesterase (Type I, Type II, Type III, e IV, and Type V) is shown in the following table.

[3] = molecular target: type I phosphodiesterase; experiment: Phosphodiesterase inhibition activity (in vitro), Type I; assay type: biochemical, rat
Description: as §1, §2, §3, §4, §5

SMILES	pIC50 [1]	pIC50 [2]	pIC50 [3]
Cc1cc(C)c2c(-c3cccc(Cl)c3)cc(=O)n(C)c2n1 [Example 24, 4-(3-chlorophenyl)-1,5,7-trimethyl-1,8-naphthyridin-2(1H)-one]	4.67	4.01	7.38
CCn1c(=O)cc(-c2cccc(Cl)c2)c2cccnc21 [Example 15, 4-(3-Chlorophenyl)-1-ethyl-1,8-naphthyridin-2(1H)-one]	4.30	4.23	7.47
CCc1cc(C)c2c(-c3cccc(Cl)c3)cc(=O)n(C3CC3)c2n1 [Example 35, 4-(3-Chlorophenyl)-1-cyclopropyl-7-ethyl-5-methyl-1,8-naphthyridin-2(1H)-on]	4.46	4.66	7.62
CCn1c(=O)cc(-c2cccc(Cl)c2)c2c(C)cc(C)nc21 [Example 29, 4-(3-Chlorophenyl)-1-ethyl-5,7-dimethyl-1,8-naphthyridin-2(1H)-one]	4.84	< 4.52	7.94
CCc1cc(C)c2c(-c3cccc(Br)c3)cc(=O)n(CC)c2n1 [Example 31, 4-(3-bromophenyl)-1,7-diethyl-5-methyl-1,8-naphthyridin-2(1H)-one]	< 4.52	< 4.52	8.37
CCCn1c(=O)cc(-c2cccc(Br)c2)c2c(C)cc(CC)nc21 [Example 33, 4-(3-Bromophenyl)-7-ethyl-5-methyl-1-propyl-1,8-naphthyridin-2(1H)-one]	4.75	< 4.52	7.84
CCn1c(=O)cc(-c2cccc(Br)c2)c2c(C)cc(C)nc21 [Example 30, 4-(3-Bromophenyl)-1-ethyl-5,7-dimethyl-1,8-naphthyridin-2(1H)-one]	4.96	4.51	8.00
CCc1cc(C)c2c(-c3ccccc3)cc(=O)n(C)c2n1 [Example 26, 7-Ethyl-1,5-dimethyl-4-phenyl-1,8-naphthyridin-2(1H)-one]	4.25	4.07	7.63
CCc1cc(C)c2c(-c3cccc(Cl)c3)cc(=O)n(C)c2n1 [Example 27, 4-(3-Chlorophenyl)-7-ethyl-1,5-dimethyl-1,8-naphthyridin-2(1H)-one]	4.81	< 4.52	7.67

Results, then the compound that gave them:

pIC50 [1]	pIC50 [2]	pIC50 [3]	SMILES
4.49	4.50	7.89	CCc1cc(C)c2c(-c3ccccc3)cc(=O)n(CC)c2n1 [Example 40, 1,7-Diethyl-5-methyl-4-phenyl-1,8-naphthyridin-2(1H)-one]
< 4.52	< 4.52	7.91	CCn1c(=O)cc(-c2ccccc2)c2c(C)cc(C)nc21 [Example 38, 1-Ethyl-5,7-dimethyl-4-phenyl-1,8-naphthyridin-2(1H)-one]
< 4.52	< 4.52	7.41	CCn1c(=O)cc(C2CCCCC2)c2cccnc21 [Example 46, 4-cyclohexyl-1-ethyl-1,8-naphthyridin-2(1H)-one 0.45 hydrochloride 0.25 hydrate]
4.56	4.52	7.47	CCc1cc(C)c2c(C3CCCCC3)cc(=O)n(CC)c2n1 [Example 49, 4-cyclohexyl-1,7-diethyl-5-methyl-1,8-naphthyridin-2(1H)-one]
< 4.52	< 4.52	7.80	CCc1cc(C)c2c(-c3cccc(Cl)c3)cc(=S)n(C)c2n1 [Example 43, 4-(3-chlorophenyl)-7-ethyl-1,5-dimethyl-1,8-naphthyridine-2(1H)-thione]
